Assay results taken from the supplement of paper PMC13380429.

Legend:
Settings in all cases: 72 h
U2OS [1] = assay: relative viability EC50 (midpoint between 100% and the lowest measured viability); higher = less toxic
Calu-3 [2] = assay: as above
HepG2 [3] = assay: as above
Vero E6 [4] = assay: as above
Caco-2 [5] = assay: as above
U2OS [6] = assay: cell viability relative to DMSO; higher = less toxic
Calu-3 [7] = assay: as above
HepG2 [8] = assay: as above
Vero E6 [9] = assay: as above
Caco-2 [10] = assay: as above
U2OS [11] = assay: drug sensitivity score (DSS) for viability; higher = more toxic; extreme values may be limits of the assay
Calu-3 [12] = assay: as above
HepG2 [13] = assay: as above
Vero E6 [14] = assay: as above
Caco-2 [15] = assay: as above

SMILES | relative viability EC50 (U2OS [1]) [µM] | relative viability EC50 (Calu-3 [2]) [µM] | relative viability EC50 (HepG2 [3]) [µM] | relative viability EC50 (Vero E6 [4]) [µM] | relative viability EC50 (Caco-2 [5]) [µM] | cell viability (U2OS [6]; 1 nM) [%] | cell viability (U2OS [6]; 10 nM) [%] | cell viability (U2OS [6]; 100 nM) [%] | cell viability (U2OS [6]; 1000 nM) [%] | cell viability (U2OS [6]; 10000 nM) [%] | cell viability (Calu-3 [7]; 1 nM) [%] | cell viability (Calu-3 [7]; 10 nM) [%] | cell viability (Calu-3 [7]; 100 nM) [%] | cell viability (Calu-3 [7]; 1000 nM) [%] | cell viability (Calu-3 [7]; 10000 nM) [%] | cell viability (HepG2 [8]; 1 nM) [%] | cell viability (HepG2 [8]; 10 nM) [%] | cell viability (HepG2 [8]; 100 nM) [%] | cell viability (HepG2 [8]; 1000 nM) [%] | cell viability (HepG2 [8]; 10000 nM) [%] | cell viability (Vero E6 [9]; 1 nM) [%] | cell viability (Vero E6 [9]; 10 nM) [%] | cell viability (Vero E6 [9]; 100 nM) [%] | cell viability (Vero E6 [9]; 1000 nM) [%] | cell viability (Vero E6 [9]; 10000 nM) [%] | cell viability (Caco-2 [10]; 1 nM) [%] | cell viability (Caco-2 [10]; 10 nM) [%] | cell viability (Caco-2 [10]; 100 nM) [%] | cell viability (Caco-2 [10]; 1000 nM) [%] | cell viability (Caco-2 [10]; 10000 nM) [%] | drug sensitivity score (U2OS [11]) | drug sensitivity score (Calu-3 [12]) | drug sensitivity score (HepG2 [13]) | drug sensitivity score (Vero E6 [14]) | drug sensitivity score (Caco-2 [15])
CCC(CC)(NC(=O)C(C)C)C(=O)N[C@@H](CCCNC(=N)N)C(=O)NC1(C(=O)NC(c2ccc(F)cc2)c2ccc(F)cc2)CCCC1 [MM-102] | > 10 | > 10 | > 10 | > 10 | > 10 | 97.8 | 94.9 | 101 | 95.8 | 99.2 | 98.1 | 85.4 | 92.5 | 97.8 | 97.8 | 100 | 96.8 | 98.4 | 105 | 114 | 94.2 | 101 | 97.3 | 99.5 | 106 | 99 | 93.9 | 101 | 94.6 | 102 | 0 | 0 | 0 | 0 | 0
CNC(=O)c1ccccc1Nc1nc(Nc2ccc(N3CCOCC3)cc2OC)ncc1Cl [NVP-TAE226] | 1.26 | 0.706 | 0.356 | 0.645 | 0.295 | 99.9 | 100 | 94.1 | 69 | 22 | 93.1 | 90.8 | 86.2 | 74.5 | 41.9 | 114 | 99.6 | 91.3 | 33.1 | 20.8 | 99.6 | 97.7 | 96.3 | 66.7 | 48.4 | 96 | 104 | 88.3 | 54.1 | 44.2 | 7.9 | 6.9 | 13.5 | 6.8 | 9.8
N[C@H]1C[C@@H]1c1ccc(-c2cccc(O)c2)cc1 [OG-L002] | > 10 | > 10 | > 10 | > 10 | > 10 | 101 | 94.3 | 98.3 | 97.8 | 96.4 | 108 | 106 | 99.3 | 95.3 | 108 | 103 | 97.6 | 100 | 115 | 114 | 96 | 103 | 95.9 | 104 | 107 | 104 | 100 | 102 | 101 | 105 | 0 | 0 | 0 | 0 | 0
CN1CCN(c2ccc(-c3cccc(CN4CCOCC4)c3)cc2NC(=O)c2c[nH]c(=O)cc2C(F)(F)F)CC1 [OICR-9429] | > 10 | > 10 | > 10 | > 10 | > 10 | 102 | 98.2 | 99.2 | 97.4 | 100 | 97 | 108 | 98 | 104 | 88.3 | 108 | 98.7 | 99.7 | 95.8 | 95 | 99.1 | 101 | 98 | 100 | 95.1 | 106 | 97.7 | 94.1 | 92 | 98.2 | 0 | 0 | 0 | 0 | 0
Cc1csc(S(=O)(=O)N(CC(C)C)c2cc3c(cc2OCc2ccc(C(=O)O)cc2)CCC3)n1 [ONO-8130] | > 10 | > 10 | > 10 | > 10 | > 10 | 97.9 | 103 | 97.5 | 101 | 95.1 | 98.5 | 101 | 97.6 | 98.5 | 99.5 | 110 | 95.3 | 96.8 | 94.8 | 93.6 | 107 | 102 | 99.3 | 97 | 98.6 | 99 | 104 | 96.4 | 99.2 | 91.6 | 0 | 0 | 0 | 0 | 0
C[C@]12C/C(=C/O)C(=O)C[C@@H]1CC[C@@H]1[C@@H]2CC[C@@]2(C)[C@H]1CC[C@]2(C)O [Oxymetholone] | > 10 | > 10 | > 10 | > 10 | > 10 | 102 | 97.8 | 99.6 | 97 | 98.1 | 117 | 97.6 | 97.3 | 102 | 101 | 101 | 108 | 96 | 111 | 96 | 97.4 | 101 | 106 | 104 | 96.3 | 100 | 87.8 | 102 | 90.4 | 96.1 | 0 | 0 | 0 | 0 | 0
O[C@@H](Cc1ccncc1)C(Cl)(Cl)Cl [PETCM] | > 10 | > 10 | > 10 | > 10 | > 10 | 98.8 | 93.3 | 99.1 | 93.3 | 99.1 | 98.8 | 89.8 | 114 | 95.3 | 110 | 101 | 103 | 95.2 | 99.3 | 97.8 | 94.7 | 97.1 | 96 | 102 | 98.2 | 99.4 | 95.8 | 103 | 98.7 | 105 | 0 | 0 | 0 | 0 | 0
COc1ccc(Cl)cc1NC(=O)Nc1cc(C)nc2ccccc12 [PQ-401] | > 10 | > 10 | > 10 | > 10 | > 10 | 98.2 | 98.5 | 100 | 101 | 86.1 | 106 | 93.4 | 107 | 94.9 | 100 | 99.1 | 106 | 92 | 103 | 80.3 | 96.4 | 95.3 | 92.8 | 96.4 | 90.8 | 93.8 | 97 | 108 | 97.6 | 77.8 | 0.1 | 0 | 0.4 | 0 | 1.1
O=C(Nc1ccc(Cl)cc1)Nc1cccc(-c2cccc(N3CCCC3)n2)c1 [PSNCBAM-1] | > 10 | > 10 | > 10 | > 10 | > 10 | 98.8 | 102 | 96.6 | 98.7 | 102 | 102 | 98.9 | 95 | 97.9 | 104 | 101 | 110 | 102 | 102 | 99.1 | 108 | 96.7 | 102 | 105 | 91.8 | 98.3 | 91.9 | 96.2 | 93.7 | 99.4 | 0 | 0 | 0 | 0 | 0
CC(C)N(CCCNC(=O)Nc1ccc(C(C)(C)C)cc1)C[C@H]1O[C@@H](n2cc(Br)c3c(N)ncnc32)[C@H](O)[C@@H]1O [SGC-0946] | > 10 | > 10 | > 10 | > 10 | > 10 | 92.3 | 102 | 99.7 | 112 | 107 | 96 | 106 | 93.9 | 101 | 95.2 | 92.1 | 96.6 | 106 | 104 | 96.6 | 94.4 | 95.7 | 93 | 97.6 | 110 | 91.2 | 98.7 | 101 | 103 | 101 | 0 | 0 | 0 | 0 | 0
C[Se]C[C@H](N)C(=O)O [Se-methylselenocysteine] | > 10 | > 10 | > 10 | > 10 | > 10 | 92.4 | 102 | 95.5 | 99.7 | 97.7 | 108 | 113 | 98.1 | 109 | 96.4 | 101 | 101 | 104 | 93 | 108 | 104 | 100 | 99.2 | 102 | 101 | 94.3 | 99.1 | 97.2 | 102 | 91.4 | 0 | 0 | 0 | 0 | 0
Clc1ccccc1C(c1ccccc1)(c1ccccc1)n1cccn1 [TRAM-34] | > 10 | > 10 | > 10 | > 10 | > 10 | 97.6 | 98.4 | 101 | 99.2 | 99 | 104 | 104 | 106 | 93.4 | 103 | 107 | 96.5 | 93.5 | 98.4 | 104 | 104 | 111 | 97.6 | 104 | 98.9 | 95.8 | 89 | 99 | 99 | 90.1 | 0 | 0 | 0 | 0 | 0
N#CC(c1ccccc1)(c1ccccc1)c1ccccc1Cl [TRAM-39] | > 10 | > 10 | > 10 | > 10 | > 10 | 101 | 96.5 | 95.7 | 97.3 | 94.3 | 93.8 | 93 | 107 | 106 | 92.9 | 105 | 102 | 93.7 | 92.7 | 103 | 103 | 97.8 | 97.8 | 95.2 | 98.5 | 94.3 | 93.2 | 90.8 | 96.9 | 92.6 | 0 | 0 | 0 | 0 | 0
CCOC(=O)c1ccc(-c2ccc(OC(=O)N(C)Cc3cccc(-c4ccncc4)c3)cc2)cc1 [WWL-113] | > 10 | > 10 | 3.7 | > 10 | > 10 | 104 | 97.3 | 98.9 | 95.9 | 97.8 | 108 | 93.6 | 108 | 99.1 | 106 | 100 | 106 | 96.5 | 107 | 38.1 | 94.7 | 98.4 | 92.5 | 99.6 | 91.4 | 97.4 | 102 | 105 | 96.5 | 92.8 | 0 | 0 | 2.9 | 0 | 0
